Experimental data published in paper PMC3545278 (Journal of pharmaceutical and biomedical analysis, 2012).
Counter-ions that a name gives are not always drawn. Like-named read-outs stand apart in the source and are kept apart here.

Columns and labels:
[1] = Plasma stability, 37°C for 20 min, human plasma; type: in vitro ADME; settings: 5% CO2, 20 min, mean ± SEM
Ultrafiltration [2] = settings: human; for recovery at 20 min, 10 μM: human plasma; for fraction unbound at 20 min, 10 μM: plasma
[3] = Rapid equilibrium dialysis; type: in vitro ADME; settings: human, plasma, pH 7.4
[4] = Rapid equilibrium dialysis; type: in vitro ADME, mouse; settings: for fraction unbound at 4 h, 10 μM: mouse, plasma, pH 7.4
[5] = human, cited from earlier work
Ultrafiltration [6] = type: in vitro ADME, mouse; settings: for recovery at 20 min, 10 μM / fraction unbound at 20 min, 10 μM: mouse; for recovery at 20 min, 10 μM / % Recovery from plasma / %PPB (UF): mouse plasma; for fraction unbound at 20 min, 10 μM: plasma; for % Recovery from plasma / %PPB (UF): 10 μM, mean ± SEM, n=3; for % Recovery from plasma: UF mass balance; for %PPB (UF): mass balance
[7] = Plasma stability as stated in text, species not specified; type: in vitro ADME; settings: 20 minute incubation at 37°C
[8] = longer than 20 min; cited from earlier work
in vitro = settings: human

| Compound | %Stability [1] [%] | recovery at 20 min, 10 μM (Ultrafiltration [2]) [%] | fraction unbound at 20 min, 10 μM (Ultrafiltration [2]) | fraction unbound at 4 h, 10 μM [3] | fraction unbound at 4 h, 10 μM [4] | recovery at 20 min, 10 μM (Ultrafiltration [6]) [%] | fraction unbound at 20 min, 10 μM (Ultrafiltration [6]) | other results |
| --- | --- | --- | --- | --- | --- | --- | --- | --- |
| CC(=O)Nc1ccc(O)cc1 [Acetaminophen] | 98.6±2.6 | 102.6 ± 0.9 | 0.733 | 0.79 | 0.611 | 97.2 ± 2.5 | 0.701 | %PPB (Literature) ([5]; ref 20): 24±7 [20] % |
| C[C@]12CCC(=O)C=C1CC[C@@H]1[C@@H]2[C@@H](O)C[C@@]2(C)[C@H]1CC[C@]2(O)C(=O)CO [Hydrocortisone] | 98.5±1.1 | 104 ± 3.3 | 0.368 | 0.279 | 0.412 | 102 ± 4 | 0.519 | %PPB (Literature) ([5]; ref 8): 65%; %PPB (Literature) ([5]; ref 23): 80% |
| O=C(Nc1cccc2cccnc12)c1ccc(N2C(=O)[C@@H]3[C@H](C2=O)[C@@H]2C=C[C@H]3C2)cc1 [IWR1] |  |  |  |  |  |  |  | stability in plasma [7]: stable; stability in plasma over longer periods of time [8]: known instability; % Recovery from plasma (Ultrafiltration [6]): 81.1±2.1%; %PPB (UF) (Ultrafiltration [6]): 95.5±0.9% |
| COc1ccc2c(c1)c(CC(=O)O)c(C)n2C(=O)c1ccc(Cl)cc1 [Indomethacin] | 111.0±8.8 | 89.7 ± 7.2 | 0.004 | 0.002 | 0.013 | 99 ± 9.7 | 0.011 | %PPB (Literature) ([5]; ref 23): 99 [23] % |
| O=S(=O)(Nc1ccccc1)c1ccc(NC(=S)Nc2ccccc2)cc1 [LED209E] |  |  |  |  |  |  |  | %PPB (RED) ([4]; mouse plasma, 10 μM, 4 hours at 37°C, mean ± SEM, n=3): 99.2±0.1%; % Recovery from plasma (Ultrafiltration [6]): 101.0±1.5%; %PPB (UF) (Ultrafiltration [6]): 99.3±0.1% |
| CC[C@H](C)C(=O)O[C@H]1C[C@@H](C)C=C2C=C[C@H](C)[C@H](CC[C@@H]3C[C@@H](O)CC(=O)O3)[C@H]21 [Lovastatin] | 96.2±5.1 | 87.6 ± 3.6 | 0.026 | 0.004 | 0.084 | 82.1 ± 8.8 | 0.029 | %PPB (Literature) ([5]; ref 21): >95 [21] % |
| OC(CNc1ccccc1)Cn1c2ccc(Br)cc2c2cc(Br)ccc21 (stereo not drawn) [P7C3] |  |  |  |  |  |  |  | % Recovery from plasma (Ultrafiltration [6]): 100.0±9.4% |
| CC(=O)O[C@H]1C(=O)[C@@]2(C)[C@H]([C@H](OC(=O)c3ccccc3)[C@]3(O)C[C@H](OC(=O)[C@H](O)[C@@H](NC(=O)c4ccccc4)c4ccccc4)C(C)=C1C3(C)C)[C@]1(OC(C)=O)CO[C@@H]1C[C@@H]2O [Paclitaxel] | 104.8±2.0 | 87.6 ± 2.2 | 0.132 | 0.03 | 0.024 | 90.8 ± 3.2 | 0.046 | %PPB (Literature) ([5]; ref 23): 88 [23] % |
| CC(C)NCC(O)COc1cccc2ccccc12 (stereo not drawn) [Propranolol HCl] | 98.7±1.2 | 100 ± 1.6 | 0.328 | 0.166 | 0.264 | 104 ± 7.6 | 0.326 | %PPB (Literature) ([5]; ref 8): 65–70 [8] % |
| Nc1ccc(S(=O)(=O)Nc2ncccn2)cc1 [Sulfadiazine] |  |  |  |  | 0.47 | 108 ± 2 | 0.403 |  |
| COc1cc(NS(=O)(=O)c2ccc(N)cc2)nc(OC)n1 [Sulfadimethoxine] |  |  |  |  | 0.044 | 109 ± 1.1 | 0.04 |  |
| Cc1ccnc(NS(=O)(=O)c2ccc(N)cc2)n1 [Sulfamerazine] |  |  |  |  | 0.195 | 107 ± 1.8 | 0.184 |  |
| Cc1nnc(NS(=O)(=O)c2ccc(N)cc2)s1 [Sulfamethiazole] | 101.9±0.4 | 99.4 ± 1.7 | 0.184 | 0.108 | 0.353 | 104 ± 1.2 | 0.348 | %PPB (Literature) ([5]; ref 22): 85–90 [22] % |
| Nc1ccc(S(=O)(=O)Nc2nccs2)cc1 [Sulfathiazole] |  |  |  |  | 0.418 | 108 ± 2.1 | 0.402 |  |
| CC(C)(C)NCC(O)c1cc(O)cc(O)c1 (stereo not drawn) [Terbutaline] | 106.5±3.3 | 104 ± 2.1 | 0.819 | 0.627 | 0.638 | 99.6 ± 8.4 | 0.81 | %PPB (Literature) ([5]; ref 21): 20%; %PPB (Literature) ([5]; ref 23): 25% |
| CCCCNC(=O)NS(=O)(=O)c1ccc(C)cc1 [Tolbutamide] | 102.2±0.8 | 97.4 ± 0.2 |  |  |  | 106 ± 3.1 |  |  |
| CC[C@]1(O)C[C@@H]2CN(CCc3c([nH]c4ccccc34)[C@@](C(=O)OC)(c3cc4c(cc3OC)N(C)[C@H]3[C@@](O)(C(=O)OC)[C@H](OC(C)=O)[C@]5(CC)C=CCN6CC[C@]43[C@@H]65)C2)C1 [Vinblastine] | 97.5±3.1 | 79.1 ± 2.1 |  | 0.113 | 0.073 | 87.5 ± 2.5 | 0.174 |  |
| CS(=O)(=O)c1ccc(C(=O)Nc2ccc(Cl)c(-c3ccccn3)c2)c(Cl)c1 [Vismodegib] |  |  |  |  | 0.009 | 94.3 ± 3.7 | 0.025 |  |
| O=C(CCCCCCC(=O)Nc1ccccc1)NO [Vorinostat] | 101.1±1.9 | 100 ± 2.1 | 0.396 | 0.241 | 0.536 | 98.7 ± 0.6 | 0.622 |  |
| CC(=O)CC(c1ccccc1)c1c(O)c2ccccc2oc1=O (stereo not drawn) [Warfarin] | 100.4±4.5 |  |  |  |  | 99.8 ± 3.9 |  | recovery at 20 min, 10 μM (in vitro): 94.2 ± 3.8% |
